# Laboratory results: patent US20080063668A1, “Nitroimidazole and terconazole composition and method” (priority 2006, published 2008)
# Columns and labels:
# [1] = tested on: Atopobium vaginae BAA-55; assay: Inhibition of bacteria growth, drug dilution tubes, anaerobic; type: cell-based; set-up: key to growth: (+) for growth; (−) for no growth; (±) for suboptimal growth after an initial observation of growth
# Experimental: Serial dilutions of tinidazole and terconazole were prepared by adding measured amounts of each substance to water (both individually and in combination). Seven bacterial organisms that are common pathogens in bacterial vaginosis were grown anaerobically in the medium as listed in Table 4 under a N2/H2/CO2 (85:5:10) head space atmosphere. [table] These cultures were diluted to a 0.5 McFarland standard prior to inoculation of drug dilution tubes. One (1) mL of the 0.5 McFarland preparation was inoculated to an anaerobically prepared test tube containing 0.8 mL of Difco anaerobic medium (DAMM) and 0.2 mL of appropriate diluted antimicrobial or antimicrobial combination for a total of 2 mL. The inoculated tubes were then incubated at 37° C. and monitored daily for growth. Growth was scored with a (+) for growth, (−) for no growth, and (±) for suboptimal growth after an initial observation of growth. Tinidazole is abbreviated as TNZ and terconazole is abbreviated as TER in Tables 5 through 11.
# [2] = Solubilization of terconazole in water with acid (crystal observation); type: physicochemical
# Experimental: Weighed amounts of terconazole were added to separate containers including an acid in water, applying heat, if necessary, to dissolve the terconazole. The amount of acid was selected to be about equimolar with the amount of terconazole added. After the terconazole was dissolved, each solution was cooled to about 4° C. to force crystallization of the terconazole. If crystals were not observed upon cooling, seed crystals of terconazole were then added and the solutions were again cooled to about 4° C. for about 72 hours. After allowing for crystal formation in all solutions, the solutions were allowed to warm to room temperature (about 20° C.).
# Table 2 includes dissolution data for a number of compositions comprising varying amounts of terconazole and various acids. The data in Table 2 clearly indicate that solutions having a terconazole concentration of at least about 3 percent by weight and free from terconazole crystals at 20° C. were obtained utilizing tartaric acid and malic acid.
# [3] = Solubilization of tinidazole in water with acid (crystal observation); type: physicochemical; conditions: 20° C., at least 14 days
# Experimental: Weighed amounts of tinidazole were added to separate containers including an acid in water, applying heat, if necessary, to dissolve the tinidazole. The amount of acid was selected to be about equimolar with the amount of tinidazole added. After the tinidazole was dissolved, each solution was cooled to about 2° C. to force crystallization of some of the tinidazole. If crystals were not observed upon cooling, seed crystals of tinidazole were added. After crystal formation was observed, the solutions were allowed to warm to room temperature (about 20° C.). […] The absence of crystals after 14 days indicates effective dissolution of tinidazole. Table 1 includes dissolution data for a number of compositions comprising varying amounts of tinidazole and various acids. The data in Table 1 clearly indicate that solutions having a tinidazole concentration of at least about 0.5 percent by weight and free from tinidazole crystals at 20° C. were obtained utilizing citric acid, hydrochloric acid, acetic acid, tartaric acid, and malic acid. Tinidazole concentrations as high as about 0.55 percent by weight were obtained utilizing tartaric acid and citric acid.
# [4] = Combined solubilization of tinidazole and terconazole in water with citric acid; type: physicochemical; conditions: 20° C., terconazole about 0.8 percent by weight
# Experimental: Weighed amounts of tinidazole and terconazole were added to separate containers including citric acid in water, applying heat, if necessary, to dissolve the tinidazole and terconazole. The amount of citric acid was selected to be about equimolar with the molar amount of tinidazole and terconazole added. After the tinidazole and terconazole was dissolved, each solution was cooled to about 4° C. to force crystallization of the tinidazole and terconazole. If crystals were not observed upon cooling, seed crystals of tinidazole were added and the solutions were again cooled to about 4° C. […] The absence of crystals after 14 days indicates effective dissolution of tinidazole and terconazole. Table 3 includes dissolution data for a number of compositions comprising varying amounts of tinidazole, terconazole and citric acid. The data in Table 3 clearly indicate that solutions having a tinidazole concentration of at least about 0.6 percent by weight and a terconazole concentration of about 0.8 percent by weight and free from crystals at 20° C. were obtained utilizing citric acid.
smiles,measurement,setting,value
"CC(C)N1CCN(c2ccc(OCC3COC(Cn4cncn4)(c4ccc(Cl)cc4Cl)O3)cc2)CC1 (stereo not drawn) [TER, cis-1-[p[[2-(2,4-dichlorophenyl)-2-(1 H-1,2,4-triazol-1-ylmethyl)-1,3-dioxolan-4-yl]methoxy]phenyl]-4-isopropylpiperazine]",growth,"[1]; TER 3.1 μg/ml, DAY 1",(+)
same,growth,"[1]; TER 3.1 μg/ml, DAY 2",(+)
same,growth,"[1]; TER 3.1 μg/ml, DAY 3",(+)
same,growth,"[1]; TER 3.1 μg/ml, DAY 4",(+)
same,growth,"[1]; TER 3.1 μg/ml, DAY 5",(+)
same,growth,"[1]; TER 6.2 μg/ml, DAY 1",(+)
same,growth,"[1]; TER 6.2 μg/ml, DAY 2",(+)
same,growth,"[1]; TER 6.2 μg/ml, DAY 3",(+)
same,growth,"[1]; TER 6.2 μg/ml, DAY 4",(+)
same,growth,"[1]; TER 6.2 μg/ml, DAY 5",(+)
same,growth,"[1]; TER 12.5 μg/ml, DAY 1",(+)
same,growth,"[1]; TER 12.5 μg/ml, DAY 2",(+)
same,growth,"[1]; TER 12.5 μg/ml, DAY 3",(+)
same,growth,"[1]; TER 12.5 μg/ml, DAY 4",(+)
same,growth,"[1]; TER 12.5 μg/ml, DAY 5",(+)
same,growth,"[1]; TER 25 μg/ml, DAY 1",(+)
same,growth,"[1]; TER 25 μg/ml, DAY 2",(+)
same,growth,"[1]; TER 25 μg/ml, DAY 3",(+)
same,growth,"[1]; TER 25 μg/ml, DAY 4",(+)
same,growth,"[1]; TER 25 μg/ml, DAY 5",(+)
same,growth,"[1]; TER 50 μg/ml, DAY 1",(+)
same,growth,"[1]; TER 50 μg/ml, DAY 2",(+)
same,growth,"[1]; TER 50 μg/ml, DAY 3",(+)
same,growth,"[1]; TER 50 μg/ml, DAY 4",(+)
same,growth,"[1]; TER 50 μg/ml, DAY 5",(+)
same,growth,"[1]; TER 100 μg/ml, DAY 1",(−)
same,growth,"[1]; TER 100 μg/ml, DAY 2",(−)
same,growth,"[1]; TER 100 μg/ml, DAY 3",(+)
same,growth,"[1]; TER 100 μg/ml, DAY 4",(+)
same,growth,"[1]; TER 100 μg/ml, DAY 5",(+)
same,growth,"[1]; TER 200 μg/ml, DAY 1",(−)
same,growth,"[1]; TER 200 μg/ml, DAY 2",(−)
same,growth,"[1]; TER 200 μg/ml, DAY 3",(−)
same,growth,"[1]; TER 200 μg/ml, DAY 4",(+)
same,growth,"[1]; TER 200 μg/ml, DAY 5",(+)
same,growth,"[1]; TER 400 μg/ml, DAY 1",(−)
same,growth,"[1]; TER 400 μg/ml, DAY 2",(−)
same,growth,"[1]; TER 400 μg/ml, DAY 3",(−)
same,growth,"[1]; TER 400 μg/ml, DAY 4",(−)
same,growth,"[1]; TER 400 μg/ml, DAY 5",(−)
same,growth,"[1]; TER 800 μg/ml, DAY 1",(−)
same,growth,"[1]; TER 800 μg/ml, DAY 2",(−)
same,growth,"[1]; TER 800 μg/ml, DAY 3",(−)
same,growth,"[1]; TER 800 μg/ml, DAY 4",(−)
same,growth,"[1]; TER 800 μg/ml, DAY 5",(−)
same,antibacterial activity compared with tinidazole,[1]; Tables 6 through 11,superior to the antibacterial compound tinidazole
same,terconazole concentration of solutions free from terconazole crystals,"[2]; 20° C., about 14 days, tartaric acid and malic acid",at least 3 percent by weight
same,terconazole solubilized,"[2]; citric acid, separate study",2.4 percent by weight
"CCS(=O)(=O)CCn1c([N+](=O)[O-])cnc1C [TNZ, 1-[2-(ethylsulfonyl)ethyl]-2-methyl-5-nitroimidazole]",growth,"[1]; TNZ 2 μg/ml, DAY 1",(+)
same,growth,"[1]; TNZ 2 μg/ml, DAY 2",(+)
same,growth,"[1]; TNZ 2 μg/ml, DAY 3",(+)
same,growth,"[1]; TNZ 2 μg/ml, DAY 4",(+)
same,growth,"[1]; TNZ 2 μg/ml, DAY 5",(+)
same,growth,"[1]; TNZ 3.9 μg/ml, DAY 1",(+)
same,growth,"[1]; TNZ 3.9 μg/ml, DAY 2",(+)
same,growth,"[1]; TNZ 3.9 μg/ml, DAY 3",(+)
same,growth,"[1]; TNZ 3.9 μg/ml, DAY 4",(+)
same,growth,"[1]; TNZ 3.9 μg/ml, DAY 5",(+)
same,growth,"[1]; TNZ 7.8 μg/ml, DAY 1",(+)
same,growth,"[1]; TNZ 7.8 μg/ml, DAY 2",(+)
same,growth,"[1]; TNZ 7.8 μg/ml, DAY 3",(+)
same,growth,"[1]; TNZ 7.8 μg/ml, DAY 4",(+)
same,growth,"[1]; TNZ 7.8 μg/ml, DAY 5",(+)
same,growth,"[1]; TNZ 15.6 μg/ml, DAY 1",(−)
same,growth,"[1]; TNZ 15.6 μg/ml, DAY 2",(+)
same,growth,"[1]; TNZ 15.6 μg/ml, DAY 3",(+)
same,growth,"[1]; TNZ 15.6 μg/ml, DAY 4",(+)
same,growth,"[1]; TNZ 15.6 μg/ml, DAY 5",(+)
same,growth,"[1]; TNZ 31.3 μg/ml, DAY 1",(−)
same,growth,"[1]; TNZ 31.3 μg/ml, DAY 2",(+)
same,growth,"[1]; TNZ 31.3 μg/ml, DAY 3",(+)
same,growth,"[1]; TNZ 31.3 μg/ml, DAY 4",(+)
same,growth,"[1]; TNZ 31.3 μg/ml, DAY 5",(+)
same,growth,"[1]; TNZ 62.5 μg/ml, DAY 1",(−)
same,growth,"[1]; TNZ 62.5 μg/ml, DAY 2",(+)
same,growth,"[1]; TNZ 62.5 μg/ml, DAY 3",(+)
same,growth,"[1]; TNZ 62.5 μg/ml, DAY 4",(+)
same,growth,"[1]; TNZ 62.5 μg/ml, DAY 5",(+)
same,growth,"[1]; TNZ 125 μg/ml, DAY 1",(−)
same,growth,"[1]; TNZ 125 μg/ml, DAY 2",(+)
same,growth,"[1]; TNZ 125 μg/ml, DAY 3",(+)
same,growth,"[1]; TNZ 125 μg/ml, DAY 4",(+)
same,growth,"[1]; TNZ 125 μg/ml, DAY 5",(+)
same,growth,"[1]; TNZ 250 μg/ml, DAY 1",(−)
same,growth,"[1]; TNZ 250 μg/ml, DAY 2",(+)
same,growth,"[1]; TNZ 250 μg/ml, DAY 3",(+)
same,growth,"[1]; TNZ 250 μg/ml, DAY 4",(+)
same,growth,"[1]; TNZ 250 μg/ml, DAY 5",(+)
same,growth,"[1]; TNZ 500 μg/ml, DAY 1",(−)
same,growth,"[1]; TNZ 500 μg/ml, DAY 2",(−)
same,growth,"[1]; TNZ 500 μg/ml, DAY 3",(+)
same,growth,"[1]; TNZ 500 μg/ml, DAY 4",(+)
same,growth,"[1]; TNZ 500 μg/ml, DAY 5",(+)
same,tinidazole concentration of solutions free from tinidazole crystals,"[3]; citric acid, hydrochloric acid, acetic acid, tartaric acid, and malic acid, about equimolar",at least 0.5 percent by weight
same,tinidazole concentration of solutions free from tinidazole crystals,[3]; tartaric acid and citric acid,about 0.55 percent by weight
same,tinidazole concentration of solutions free from crystals,[4],at least 0.6 percent by weight
